From patent publication US20140093489A1, “NUTRITIONAL SUPPLEMENTS FOR EYE HEALTH AND RELATED METHODS” (priority 2012, published 2014)
Where two headings read alike, the source gives them in different places.

How the values were obtained:
[1] = Coenzyme Q supplementation effect on serum vitamin C; assay type: in vivo
Excerpt: FIG. 1. Coenzyme Q supplementation effect on serum vitamin C (μg/ml). Subjects (N=12) were given coenzyme Q for 2 weeks with blood taken pre and post intervention. Values are means±SD.
Coenzyme Q has antioxidant properties. This molecule is found in the diet and is made by the body. Body production declines with age. Absorption of orally ingested coenzyme Q can be low, though certain forms work better than others.

[2] = one dose of zinc, blood samples at 0-4 hours, n=12, ANOVA+Tukey p<0.05
Protocol: FIG. 2. Relative zinc absorption from three different forms of zinc. Subjects (n=12) were given one dose of zinc with blood samples taken at 0, 1, 2, 3, and 4 hours. Erythrocyte (red blood cell) zinc was analyzed for each time point with area under the curve used as a measure of relative absorption. The order of the different forms of zinc was randomly determined for each subject. A washout of at least 2 weeks occurred between testings of the different forms of zinc. Values are means±SD.
Zinc is important in maintaining the health of an eye's retina and is an essential part of more than 100 enzymes involved in digestion, metabolism, reproduction, and wound healing. […] (FIG. 3).

[3] = 60 mg/day zinc for 6 weeks
Protocol: Plasma zinc (μg/ml) response to zinc supplementation as gluconate (GLUC) or glycinate chelate (CHE). Young adult females were given 60 mg/day zinc for 6 weeks.

[4] = test system: plasma extracellular superoxide dismutase; conditions: rats fed the copper at adequate level for 6 weeks, unpaired t-test P<0.01
Excerpt: FIG. 4. Comparison of adequate copper intake as sulfate or glycinate for effects on plasma extracellular superoxide dismutase activities in rats. Rats were fed the copper for 6 weeks. […] Values are means±SD in activity units/ml.
Copper is another important cofactor for metalloenzymes, and is a second necessary cofactor for superoxide dismutase.

Molecule: COC1=C(OC)C(=O)C(C/C=C(\C)CC/C=C(\C)CC/C=C(\C)CC/C=C(\C)CC/C=C(\C)CC/C=C(\C)CC/C=C(\C)CC/C=C(\C)CC/C=C(\C)CCC=C(C)C)=C(C)C1=O [Coenzyme Q]
- serum vitamin C (μg/ml), post-values vs pre-values ([1]; coenzyme Q for 2 weeks, N=12, paired t-test P<0.001): significantly different from pre-values
- plasma concentrations of active vitamin C ([1]; well-absorbed form of coenzyme Q, FIG. 1): greatly increase plasma concentrations of active vitamin C

Molecule: NCC(=O)[O-].NCC(=O)[O-].[Zn+2] [zinc glycinate]
- relative zinc absorption (erythrocyte zinc area under the curve) [2]: better absorbed than zinc oxide
- relative zinc absorption (erythrocyte zinc area under the curve) ([2]; listed as Zinc chelate): differed from the other two groups
- plasma zinc (μg/ml), post treatment vs pre-treatment [3]: significantly different from pre-treatment

Molecule: NCC(=O)[O-].NCC(=O)[O-].[Cu+2] [copper glycinate]
- plasma extracellular superoxide dismutase activities (activity units/ml) [4]: higher activities of a plasma copper enzyme than copper sulfate
- plasma extracellular superoxide dismutase activities (activity units/ml) ([4]; listed as Glycinate): significantly different from sulfate values

Molecule: zinc gluconate [reference compound]
- plasma zinc (μg/ml), post treatment vs pre-treatment [3]: statistically significant decrease
